{
  "source": "paper PMC8264131",
  "about": "(Frontiers in Pharmacology, 2021)",
  "key": {"[1]": {"assay": "bovine blood in vitro hemodialysis model: hemofilter clearance", "format": "in vitro ADME", "conditions": "for Cl, in vitro clearance rate: ultrafiltration 0 ml/min, 37°C, corrected by hematocrit", "procedure": "Hemodialysis was simulated using a Fresenius 4008H dialysis machine. After priming of the extracorporeal circuit including the dialysis membrane with 0.9% saline solution, a reservoir bag containing 2 L of 37°C warm heparinized bovine blood (provided in cooperation with the University of Veterinary Medicine Vienna after seeking authorization by the institutional and governmental ethics committee, (ZI.04/04/972,013, GZ: 68.205/0240-WF/V/3b/2016) was connected to the circuit. The blood was kept at 37°C throughout the experiment. It was mixed with 2,000 IU of low molecular weight heparin directly during the blood draw as well as during the experiment itself with a rate of 500 IU per hour. After circuit connection, the investigated drug was added to the reservoir in order to mimic plasma levels previously described in trials ([Lanese et al., 1989]; [Thalhammer et al., 1997]; [Amin et al., 1999]). […] After priming the system with blood, it was allowed to run for 30 s to allow equilibration of blood hematocrit throughout the extracorporeal circuit before the baseline sample was drawn. Due to the reduced volume compared to in vivo and the comparably large hemofilter membrane area, a considerably faster drug concentration decline was expected. Thus, pre filter, post filter and ultrafiltrate samples were collected at the end of minutes 1, 5, 10, 15, 20, 30, 40 and 60 of the run. All samples were plasma separated by centrifugation at 2000 ×vg for 7 min and the supernatant stored at −80°C for analysis.\nAn actual blood flow rate of 300 ml/min and a dialysate flow rate of 500 ml/min were kept as standard flow rates. Depending on previous literature, single drugs were run at different flow rates to allow external validation of the model. Ultrafiltration (corresponding to negative fluid balance/water removal during hemodialysis) was kept at 0 ml/min. […] Hemodialysation and hemofiltration experiments were performed with Baxter Gambro CAHP 170 diacetate devices, Nipro Sureflux 17UX and 21UX triacetate membranes as well as Fresenius Hemoflow F80s and FX 80 polysulphone membranes.\nThe measured drug plasma concentrations were analyzed to calculate the area under the curve, hemofilter clearance and the drug saturation coefficient. As removal within the hemofilter is expected to be too fast for equilibration of drugs out of the erythrocyte compartment and drug concentrations were measured in the plasma, all clearance values were calculated with a hematocrit corrected formula, in which Hc is the blood hematocrit in percent divided by 100, BFR the actual blood flow rate, Cpre the drug concentration measured before the blood enters the filter and Cpost the drug concentration measured after the filter. Additionally the formula allows for correction of blood concentration by ultrafiltration (UFR). (1−Hc)×BFR×Cpre−(Cpost(BFR−UFR))/BFR/[…]\nHematocrit corrected and not corrected clearance, total “body” clearance, volume of distribution, area under curve, elimination coefficient and half-life were evaluated for their correspondence to previously published in vivo values. Whenever previous publications declared the method of clearance calculation, the same formula was used. […] An empirical fitting of the in vitro PK curves and available in vivo PK curves was performed to gain an insight into the time relation between in vitro and in vivo.\nMore recent historic data on intradialytic gentamicin clearance only exists for the Baxter CAHP-210 membrane ([Sowinski et al., 2008]) and the Fresenius F80s ([Amin et al., 1999]) which are both not available anymore. Baxter however was kind enough to supply us with several CAHP-170 and […] models. To extrapolate assumed clearance of a CAHP-210, we compared clearance gains between a Nipro Sureflux 17UX and a Sureflux 21UX membrane."}, "[2]": {"conditions": "cited from earlier work", "excerpt": "TABLE 2 Comparison of in vitro and in vivo clearance values."}, "[3]": {"conditions": "cited from earlier work", "remark": "listed apart in the source"}, "[4]": {"assay": "plasma protein binding in bovine plasma (ultrafiltration)", "conditions": "bovine plasma from two cows, 2000 x g"}, "[5]": {"conditions": "earlier publications, slightly higher bound fraction, (±3.0); ref PMC, 1972; cited from earlier work"}, "[6]": {"conditions": "membrane Fx80 (Fresenius high flux polysulphone, 1.8 m^2), BFR 300 ml/min, DFR 500 ml/min, bovine blood, mean, N = 12"}},
  "note": "Like-named read-outs stand apart in the source and are kept apart here.",
  "data": [
    {"molecule": "teicoplanin", "values": [
      {"measurement": "Cl, in vitro clearance rate", "setting": "[1]; membrane F60s (Fresenius polysulphone), BFR 250 ml/min, DFR 500 ml/min, bovine blood, mean, N = 16", "value": 25.50, "unit": "mL/min"},
      {"measurement": "Clin vitro, non hematocrit corrected clearance", "setting": "[1]; membrane F60s, bovine blood in vitro hemodialysis, non hematocrit corrected, mean", "value": 38.95, "unit": "mL/min"},
      {"measurement": "Cl, in vitro clearance rate", "setting": "[1]; membrane Fx80 (Fresenius polysulphone), BFR 250 ml/min, DFR 500 ml/min, bovine blood, mean, N = 12", "value": 43.49, "unit": "mL/min"},
      {"measurement": "clearance, simulation with Sureflux SF 21E triacetate dialyzer", "setting": "[1]; membrane Sureflux SF 21E triacetate, bovine blood in vitro hemodialysis, flow rates not given", "value": 17.6, "unit": "mL/min"},
      {"measurement": "Clin vivo, non-hematocrit corrected clearance", "setting": "[2]; human, in vivo", "value": 39.70, "unit": "mL/min"}
    ]},
    {"molecule": "C[C@@H](O)[C@H]1C(=O)N2C(C(=O)O)=C(S[C@@H]3CN[C@H](CNS(N)(=O)=O)C3)[C@H](C)[C@H]12", "note": "[Doripenem, doripenem]", "values": [
      {"measurement": "Cl, in vitro clearance rate", "setting": "[1]; [6]", "value": 141.25, "unit": "mL/min"},
      {"measurement": "Cl, in vitro clearance rate", "setting": "[1]; membrane SF21UX (Nipro cellulose triacetate, 2.1 m^2), BFR 300 ml/min, DFR 500 ml/min, bovine blood, mean, N = 12", "value": 155.76, "unit": "mL/min"},
      {"measurement": "Clin vivo, clearance as described in referenced publication", "setting": "[2]; human, in vivo", "value": 148.61, "unit": "mL/min"},
      {"measurement": "plasma protein binding, Human", "setting": "[3]", "value": 8.0, "unit": "%"},
      {"measurement": "plasma protein binding, Bovine", "setting": "[4]; Centrisart I devices, 20 min, room temperature, HPLC", "value": 9.7, "unit": "%"}
    ]},
    {"molecule": "CNC(C)C1CCC(N)C(OC2C(N)CC(N)C(OC3OCC(C)(O)C(NC)C3O)C2O)O1", "note": "(centres unmarked) [Gentamicin, gentamicin]", "values": [
      {"measurement": "Cl, in vitro clearance rate", "setting": "[1]; membrane CAHP-170 (Baxter cellulose diacetate, 1.7 m^2), BFR 400 ml/min, DFR 800 ml/min, bovine blood, mean, N = 16", "value": 90.12, "unit": "mL/min"},
      {"measurement": "Cl, in vitro clearance rate", "setting": "[1]; membrane F80s (Fresenius high flux polysulphone, 1.8 m^2), BFR 300 ml/min, DFR 500 ml/min, bovine blood, mean, N = 12", "value": 122.37, "unit": "mL/min"},
      {"measurement": "Cl, in vitro clearance rate", "setting": "[1]; membrane F80s (Fresenius high flux polysulphone, 1.8 m^2), BFR 400 ml/min, DFR 800 ml/min, bovine blood, mean, N = 12", "value": 137.62, "unit": "mL/min"},
      {"measurement": "Cl, in vitro clearance rate", "setting": "[1]; [6]", "value": 142.13, "unit": "mL/min"},
      {"measurement": "Cl, in vitro clearance rate", "setting": "[1]; membrane Fx80 (Fresenius high flux polysulphone, 1.8 m^2), BFR 400 ml/min, DFR 800 ml/min, bovine blood, mean, N = 12", "value": 187.90, "unit": "mL/min"},
      {"measurement": "Cl, in vitro clearance rate", "setting": "[1]; membrane SF17UX (Nipro cellulose triacetate, 1.7 m^2), BFR 400 ml/min, DFR 800 ml/min, bovine blood, mean, N = 12", "value": 160.75, "unit": "mL/min"},
      {"measurement": "Cl, in vitro clearance rate", "setting": "[1]; membrane SF21E (Nipro Sureflux-21E medium-flux cellulose triacetate, 2.1 m^2), BFR 400 ml/min, DFR 800 ml/min, 2 L heparinized bovine blood, mean, N = 12", "value": 131.52, "unit": "mL/min"},
      {"measurement": "Cl, in vitro clearance rate", "setting": "[1]; membrane SF21UX (Nipro cellulose triacetate, 2.1 m^2), BFR 400 ml/min, DFR 800 ml/min, bovine blood, mean, N = 17", "value": 178.25, "unit": "mL/min"}
    ]},
    {"molecule": "CN[C@H](CC(C)C)C(=O)N[C@H]1C(=O)N[C@@H](CC(N)=O)C(=O)N[C@H]2C(=O)N[C@H]3C(=O)N[C@H](C(=O)N[C@H](C(=O)O)c4cc(O)cc(O)c4-c4cc3ccc4O)[C@H](O)c3ccc(c(Cl)c3)Oc3cc2cc(c3O[C@@H]2O[C@H](CO)[C@@H](O)[C@H](O)[C@H]2O[C@H]2C[C@](C)(N)[C@H](O)[C@H](C)O2)Oc2ccc(cc2Cl)[C@H]1O", "note": "[Vancomycin, vancomycin]", "values": [
      {"measurement": "Clin vivo, clearance as described in referenced publication", "setting": "[2]; hemodialysis patients, membrane F60s, ref Lanese et al. (1989)", "value": 73.0, "unit": "mL/min"},
      {"measurement": "Clin vivo, clearance as described in referenced publication", "setting": "[2]; hemodialysis patients, membrane F80s, ref Lanese et al. (1989)", "value": 85.2, "unit": "mL/min"},
      {"measurement": "plasma protein binding, Human", "setting": "[3]; previously published value, ref Butterfield et al. (2011)", "value": 41.5, "unit": "%"},
      {"measurement": "bound fraction", "setting": "[5]", "value": 54.8, "unit": "%"},
      {"measurement": "plasma protein binding, Bovine", "setting": "[4]; Millipore Centrefree device, 1 ml aliquot, 10 min, Cobas VANC3 assay", "value": 43.6, "unit": "%"}
    ]}
  ]
}
